Measurements: patent US20220153732A1, “PROTEIN SECRETION INHIBITORS” (KEZAR LIFE SCIENCES, priority 2019, published 2022)
pEC50, pIC50: −log10 of the molar value. Like-named read-outs stand apart in the source and are kept apart here.

Key:
Type in all cases: cell-based
[1] = system: TNFα-FL/Gaussia Luciferase; assay: Dox Induced TNFα-FL-Gluc Assay
Procedure, shortened: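 A stable T-REx cell line carrying doxycycline-inducible TNFα-FL/Gaussia luciferase was plated the day before assay. Compound dilutions in DMSO/media containing doxycycline were then added and incubated at 37° C, 5% CO2.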

[2] = system: human multiple myeloma cell line NCI-H929; assay: H929 Cell Viability Assay; conditions: 48 hr, NCI-H929 cells, Celltiter-Glo, read-out: 48 hr H929 Viability Celltiter-Glo: Mean EC50
Procedure: Plates were incubated at 37° C., 5% CO2 for 48 hours. After 48 hours, Celltiter-Glo® (Promega) was added to each well and luciferase signal was quantified using Tecan Infinite M1000 Pro for cell viability determination.
For chemical structures that include one or more stereoisomers, but are illustrated without indicating stereochemistry, the assay data refers to a mixture of stereoisomers.

[3] = system: HER3-ss+4aa/Gaussia Luciferase; assay: Dox-Induced Her3-ss-Gluc Assay
Procedure, shortened: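 Stable T-REx cell line carrying a doxycycline-regulated HER3-ss+4aa/Gaussia luciferase insert, plated the day before assay. Compound dilutions in DMSO/media with doxycycline added, then incubated at 37° C., 5% CO2. Stereoisomer mixtures tested where stereochemistry is not drawn.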

[4] = system: human multiple myeloma cell line U266B1; assay: U266 Cell Viability Assay; conditions: U-266, 48 hr, U266B1 cells, Celltiter-Glo, read-out: 48 hr U266 Viability Celltiter-Glo: Mean EC50
Procedure, shortened: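 U266B1 myeloma cells treated with compound dilutions in DMSO/media for 48 h at 37 °C, 5% CO2. Viability read by CellTiter-Glo luminescence. Stereochemically undefined structures were tested as stereoisomer mixtures.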

[5] = system: IL-2-FL/Gaussia Luciferase; assay: Dox Induced IL2-FL-Gluc Assay
Procedure, shortened: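 Stable T-REx cell line expressing doxycycline-inducible IL-2-FL/Gaussia luciferase cDNA, plated the day before assay. Compound dilutions in DMSO/media containing doxycycline added and incubated at 37° C., 5% CO2. Unspecified stereochemistry means data refer to a stereoisomer mixture.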

[6] = system: PD1-ss+10aa/Gaussia Luciferase; assay: Dox-Induced PD1-ss-Gluc Assay
Procedure, shortened: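 Stable cell line carrying PD1-ss+10aa/Gaussia luciferase cDNA under T-REx (doxycycline-inducible) control, plated the day before assay. Compound dilutions in DMSO/media containing doxycycline added and incubated at 37° C, 5% CO2. Undefined stereocentres: data refer to stereoisomer mixtures.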

[7] = read-out: 24 hr Dox Inducible TNFaFLGluc 293FRT/TO: Mean IC50; 24 hr, doxycycline-induced, 293FRT/TO cells
[8] = read-out: 24 hr Dox Inducible Her3(ss + 4)Gluc 293FRT/TO: Mean IC50; 24 hr, doxycycline-induced, 293FRT/TO cells
[9] = read-out: 24 hr Dox Inducible IL2FLGIuc 293FRT/TO: Mean IC50; 24 hr, doxycycline-induced, 293FRT/TO cells
[10] = read-out: 24 hr Dox Inducible PD1ssGluc 293FRT/TO: Mean IC50; 24 hr, doxycycline-induced, 293FRT/TO cells
[11] = 24 hr, doxycycline-induced, 293FRT/TO cells; read-out: 24 hr Dox Inducible TNFaFLGluc 293FRT/TO: Mean IC50
[12] = 24 hr, doxycycline-induced, 293FRT/TO cells; read-out: 24 hr Dox Inducible Her3(ss + 4)Gluc 293FRT/TO: Mean IC50
[13] = 24 hr, doxycycline-induced, 293FRT/TO cells; read-out: 24 hr Dox Inducible IL2FLGIuc 293FRT/TO: Mean IC50
[14] = 24 hr, doxycycline-induced, 293FRT/TO cells; read-out: 24 hr Dox Inducible PD1ssGluc 293FRT/TO: Mean IC50

Structure (SMILES) | pIC50 [1, 7] | pEC50 [2] | pIC50 [3, 8] | pEC50 [4] | pIC50 [5, 9] | pIC50 [6, 10] | pIC50 [1, 11] | pIC50 [3, 12] | pIC50 [5, 13] | pIC50 [6, 14]
O=C(Nc1nc(C2CCC(c3ccccc3)O2)cs1)c1cccn1Cc1ccncc1 (stereo not drawn) [Compound A310, N-(4-(5-phenyltetrahydrofuran-2-yl)thiazol-2-yl)-1-(pyridin-4-ylmethyl)-1H-pyrrole-2-carboxamide] | 4.61 | < 4.60 | 5.26 | < 4.60 | 5.16 | 5.67 |  |  |  | 
COc1ccc([C@@H]2C[C@H]2c2csc(NC(=O)c3cccn3Cc3ccncc3)n2)nc1 [Compound A311] |  | 5.22 |  | 5.21 |  |  | 5.48 | 6.29 | 6.06 | 6.76
COc1ccc([C@H]2C[C@H]2c2csc(NC(=O)c3cccn3Cc3ccncc3)n2)nc1 [Compound A312] |  | < 4.60 |  | < 4.60 |  |  | 5.38 | 6.19 | 5.94 | 6.71
O=C(Nc1nc([C@@H]2CCCN2C(=O)c2ccccc2)cs1)c1cccn1Cc1ccncc1 [Compound A313] |  | < 4.60 |  | < 4.60 |  |  | < 4.60 | 5.10 | 5.20 | 5.41
COc1ccc(O[C@H]2C[C@H](c3csc(NC(=O)c4cccn4Cc4ccncc4)n3)C2)nc1 [Compound A314] |  | 5.00 |  | 4.80 |  |  | 5.83 | 6.84 | 6.37 | 7.33
COc1ccc(N2CC(c3csc(NC(=O)c4cccn4Cc4ccncc4)n3)C2)nc1 [Compound A315] |  | < 4.60 |  | < 4.60 |  |  | 5.10 | 6.08 | 5.85 | 6.60
O=C(Nc1nc(C2CN(c3ccccc3)C2)cs1)c1cccn1Cc1ccncc1 [Compound A316] |  | < 4.60 |  | < 4.60 |  |  | 5.50 | 6.50 | 6.12 | 6.93
O=C(Nc1nc([C@H]2CCCN2c2ccccn2)cs1)c1cccn1Cc1ccncc1 [Compound A317] |  | 5.59 |  | < 4.60 |  |  | 6.37 | 7.19 | 7.24 | 7.60
O=C(Nc1nc([C@@H]2CCCN2c2ccccc2)cs1)c1cccn1Cc1ccncc1Cl [Compound A318] |  | 5.22 |  | < 4.60 |  |  | 6.09 | 7.01 | 6.74 | 7.31
O=C(Nc1nc([C@H]2CCC(=O)N2c2ccccc2)cs1)c1cccn1Cc1ccncc1 [Compound A319] |  | < 4.60 |  | < 4.60 |  |  | 4.79 | 5.57 | 5.73 | 5.88
O=C(Nc1nc([C@@H]2CCC(=O)N2Cc2ccccc2)cs1)c1cccn1Cc1ccncc1 [Compound A320] |  | < 4.60 |  | < 4.60 |  |  | < 4.60 | < 4.60 | < 4.60 | 4.98
O=C(Nc1nc([C@H]2C[C@@H](O)CN2c2ccccc2)cs1)c1cccn1Cc1ccncc1 [Compound A321] |  | 5.01 |  | < 4.60 |  |  | 5.38 | 6.04 | 6.02 | 6.67
CC(C)(C)[Si](O[C@@H]1C[C@H](c2csc(NC(=O)c3cccn3Cc3ccncc3)n2)N(c2ccccc2)C1)(c1ccccc1)c1ccccc1 [Compound A322] | 7.85 | 6.50 | 8.05 | < 4.60 | 8.05 | 8.52 |  |  |  | 
CC(C)(C)[Si](O[C@H]1C[C@H](c2csc(NC(=O)c3cccn3Cc3ccncc3)n2)N(c2ccccc2)C1)(c1ccccc1)c1ccccc1 [Compound A323] | 7.96 | 6.93 | 7.89 | < 4.60 | 8.00 | 8.15 |  |  |  | 
O=C(Nc1nc([C@H]2CC[C@H]2c2ccccc2)cs1)c1cccn1Cc1ccncc1 [Compound A324] |  | 4.95 |  | < 4.60 |  |  | 5.52 | 6.24 | 6.32 | 6.54
CO[C@@H]1C[C@H](c2csc(NC(=O)c3cccn3Cc3ccncc3)n2)N(c2ccccc2)C1 [Compound A325] |  | 5.44 |  | < 4.60 |  |  | 6.69 | 7.34 | 7.24 | 7.59
O=C(Nc1nc([C@H]2C[C@H](O)CN2c2ccccc2)cs1)c1cccn1Cc1ccncc1 [Compound A326] |  | 5.30 |  | < 4.60 |  |  | 6.51 | 6.70 | 6.90 | 7.23
O=C(Nc1nc(/C=C/c2ccc(OC(F)(F)F)cn2)cs1)c1cccn1Cc1ccncc1 [Compound A327] |  | 4.82 |  | < 4.60 |  |  | 5.35 | 6.33 | 6.00 | 7.80
O=C(Nc1nc([C@H]2CCCN2c2ccc3c(c2)OC(F)(F)O3)cs1)c1cccn1Cc1ccncc1 [Compound A328] |  | 6.42 |  | 4.78 |  |  | 6.98 | 7.92 | 7.85 | 8.05
O=C(Nc1nc([C@H]2C[C@H](Oc3ccccc3)C2)cs1)c1cccn1Cc1ccncc1 [Compound A329] |  | 4.64 |  | < 4.60 |  |  | 5.50 | 6.47 | 6.13 | 6.69
O=C(Nc1nc([C@H]2C[C@@H](Oc3ccccc3)C2)cs1)c1cccn1Cc1ccncc1 [Compound A330] |  | 4.72 |  | < 4.60 |  |  | 5.41 | 6.32 | 5.99 | 6.66
O=C(Nc1nc([C@H]2CC[C@@H]2c2ccccc2)cs1)c1cccn1Cc1ccncc1 [Compound A331] |  | 5.33 |  | < 4.60 |  |  | 6.37 | 7.09 | 6.75 | 7.19
O=C(Nc1nc([C@@H]2CCCCN2c2ccccc2)cs1)c1cccn1Cc1ccncc1 [Compound A332] |  | 5.37 |  | < 4.60 |  |  | 6.29 | 7.01 | 7.09 | 7.19
CO[C@H]1C[C@H](c2csc(NC(=O)c3cccn3Cc3ccncc3)n2)N(c2ccccc2)C1 [Compound A333] |  | 5.83 |  | < 4.60 |  |  | 6.78 | 7.38 | 7.57 | 7.68
CO[C@H]1CCN(c2ccccc2)[C@H]1c1csc(NC(=O)c2cccn2Cc2ccncc2)n1 [Compound A334] |  | 5.19 |  | 5.04 |  |  | 6.11 | 6.86 | 6.96 | 7.10
COc1cnc([C@@H]2C[C@H]2c2csc(NC(=O)c3cccn3Cc3ccncc3)n2)c(F)c1 [Compound A335] |  | 4.94 |  | < 4.60 |  |  | 5.52 | 6.39 | 6.12 | 6.89
O=C(Nc1nc([C@H]2CCN2c2ccccc2)cs1)c1cccn1Cc1ccncc1 [Compound A336] |  | 4.75 |  | < 4.60 |  |  | 5.87 | 6.08 | 6.48 | 6.43
O=C(Nc1nc([C@@H]2COCCN2c2ccccc2)cs1)c1cccn1Cc1ccncc1 [Compound A337] |  | 4.67 |  | < 4.60 |  |  | 5.55 | 6.26 | 6.42 | 6.72
C[C@]1(c2csc(NC(=O)c3cccn3Cc3ccncc3)n2)CCCN1c1ccccc1 [Compound A338] |  | 4.83 |  | < 4.60 |  |  | 5.73 | 6.58 | 6.46 | 6.69
